Data: ChEMBL document CHEMBL3352089 (J Med Chem, 2014)

Tests used:
Type in all cases: cell-based
Conditions in all cases: read-out: Activity
[1] = Cytotoxicity against human HepG2 cells assessed as cell viability at 10 uM after 4 hrs by Cell-Titer Glo assay
[2] = Cytotoxicity against human HepG2 cells assessed as cell viability at 1 uM after 24 hrs by Cell-Titer Glo assay
[3] = Cytotoxicity against human HepG2 cells assessed as cell viability at 10 uM after 24 hrs by Cell-Titer Glo assay
[4] = Cytotoxicity against human HepG2 cells assessed as cell viability at 1 uM after 4 hrs by Cell-Titer Glo assay
[5] = Cytotoxicity against human HepG2 cells assessed as cell viability at 100 uM after 4 hrs by Cell-Titer Glo assay

Nc1ncc(-c2cccc(N3CCNCC3)c2)cc1-c1ccnc2ccccc12
> 75%: viability at 4 h, 10 µM [1] | viability at 24 h, 1 µM [2] | viability at 24 h, 10 µM [3] | viability at 4 h, 1 µM [4]

COc1cccc(-c2cc(-c3ccc(N4CCNCC4)cc3)cnc2N)c1
> 75%: viability at 4 h, 10 µM [1] | viability at 24 h, 1 µM [2] | viability at 24 h, 10 µM [3] | viability at 4 h, 1 µM [4] | viability at 4 h, 100 µM [5]

CNC(=O)c1cc(Oc2ccc(NC(=O)Nc3ccc(Cl)c(C(F)(F)F)c3)cc2)ccn1 [SORAFENIB]
> 75%: viability at 4 h, 10 µM [1] | viability at 24 h, 1 µM [2] | viability at 24 h, 10 µM [3] | viability at 4 h, 1 µM [4] | viability at 4 h, 100 µM [5]

Cc1nc(Nc2ncc(C(=O)Nc3c(C)cccc3Cl)s2)cc(N2CCN(CCO)CC2)n1 [DASATINIB]
> 75%: viability at 4 h, 10 µM [1] | viability at 24 h, 1 µM [2] | viability at 4 h, 1 µM [4]

Nc1ncc(-c2ccc(N3CCNCC3)cc2)cc1-c1ccc2c(c1)OCCO2
> 75%: viability at 4 h, 10 µM [1] | viability at 24 h, 1 µM [2] | viability at 24 h, 10 µM [3] | viability at 4 h, 1 µM [4] | viability at 4 h, 100 µM [5]

Nc1ncc(-c2ccc(N3CCNCC3)cc2)cc1-c1cccc2ncccc12
> 75%: viability at 4 h, 10 µM [1] | viability at 24 h, 1 µM [2] | viability at 24 h, 10 µM [3] | viability at 4 h, 1 µM [4] | viability at 4 h, 100 µM [5]

COc1cc(-c2cc(-c3ccc(N4CCNCC4)cc3)cnc2OC)cc(OC)c1OC
> 75%: viability at 4 h, 10 µM [1] | viability at 24 h, 1 µM [2] | viability at 24 h, 10 µM [3] | viability at 4 h, 1 µM [4]

CNc1ncc(-c2ccc(N3CCNCC3)cc2)cc1-c1cc(OC)c(OC)c(OC)c1
> 75%: viability at 4 h, 10 µM [1] | viability at 24 h, 1 µM [2] | viability at 24 h, 10 µM [3] | viability at 4 h, 1 µM [4] | viability at 4 h, 100 µM [5]

COc1cc(-c2cc(-c3cccc(N4CCNCC4)c3)cnc2N)cc(OC)c1OC
> 75%: viability at 4 h, 10 µM [1] | viability at 24 h, 1 µM [2] | viability at 24 h, 10 µM [3] | viability at 4 h, 1 µM [4] | viability at 4 h, 100 µM [5]

COc1cc(OC)cc(-c2cc(-c3ccc(N4CCNCC4)cc3)cnc2N)c1
> 75%: viability at 4 h, 10 µM [1] | viability at 24 h, 1 µM [2] | viability at 24 h, 10 µM [3] | viability at 4 h, 1 µM [4]

c1ccc2c(-c3cnn4cc(-c5ccc(N6CCNCC6)cc5)cnc34)ccnc2c1
> 75%: viability at 4 h, 10 µM [1] | viability at 24 h, 1 µM [2] | viability at 4 h, 1 µM [4]

COc1ccc(-c2cc(-c3ccc(N4CCNCC4)cc3)cnc2N)cc1
> 75%: viability at 4 h, 10 µM [1] | viability at 24 h, 1 µM [2] | viability at 24 h, 10 µM [3] | viability at 4 h, 1 µM [4]

CCN(CC)CCNC(=O)c1c(C)[nH]c(/C=C2\C(=O)Nc3ccc(F)cc32)c1C [SUNITINIB]
> 75%: viability at 4 h, 10 µM [1] | viability at 24 h, 1 µM [2] | viability at 4 h, 1 µM [4]

COc1cc(-c2cc(-c3ccc(N4CCNCC4)cc3)cnc2N)ccc1Cl
> 75%: viability at 4 h, 10 µM [1] | viability at 24 h, 1 µM [2] | viability at 24 h, 10 µM [3] | viability at 4 h, 1 µM [4]

CC(C)Oc1cccc(-c2cc(-c3ccc(N4CCNCC4)cc3)cnc2N)c1
> 75%: viability at 4 h, 10 µM [1] | viability at 24 h, 1 µM [2] | viability at 24 h, 10 µM [3] | viability at 4 h, 1 µM [4]

COc1cc(-c2cc(-c3ccc(N4CCNCC4)cc3)cnc2N)ccc1C
> 75%: viability at 4 h, 10 µM [1] | viability at 24 h, 1 µM [2] | viability at 24 h, 10 µM [3] | viability at 4 h, 1 µM [4]

C[C@@H](Oc1cc(-c2cnn(C3CCNCC3)c2)cnc1N)c1c(Cl)ccc(F)c1Cl [CRIZOTINIB]
> 75%: viability at 4 h, 10 µM [1] | viability at 24 h, 1 µM [2] | viability at 24 h, 10 µM [3] | viability at 4 h, 1 µM [4]

COc1cc(OC)cc(-c2cncc(-c3ccc(N4CCNCC4)cc3)c2)c1
> 75%: viability at 4 h, 10 µM [1] | viability at 24 h, 1 µM [2] | viability at 24 h, 10 µM [3] | viability at 4 h, 1 µM [4]

COc1cc(-c2cnn3cc(-c4ccc(N5CCNCC5)cc4)cnc23)cc(OC)c1OC
> 75%: viability at 4 h, 10 µM [1] | viability at 24 h, 1 µM [2] | viability at 4 h, 1 µM [4]
